BindingDB's records for doi:10.1016/j.bmcl.2010.07.026 (Daiichi Sankyo, 2010)

Molecular target: 3-phosphoinositide-dependent protein kinase 1 (Homo sapiens) (UniProt O15530)
Assay: Inhibition of recombinant PDK1 after 15 mins

SMILES | IC50
O=C(NCCN1CCCC1)c1ccc(-c2cnc3ccc(NCc4ccc(Cl)c(Cl)c4)nn23)cc1 [4-(6-(3,4-dichlorobenzylamino)imidazo[1,2-b]pyridazin-3-yl)-N-(2-(pyrrolidin-1-yl)ethyl)benzamide] | > 100 µM
O=C(NC[C@@H]1CCCN1)c1ccc(-c2cnc3ccc(NCc4ccc(Cl)c(Cl)c4)nn23)cc1 [(S)-4-(6-(3,4-dichlorobenzylamino)imidazo[1,2-b]pyridazin-3-yl)-N-(pyrrolidin-2-ylmethyl)benzamide] | > 100 µM
CN(C)CCNC(=O)c1ccc(-c2cnc3ccc(NCC4CC4)nn23)cc1 [4-(6-(cyclopropylmethylamino)imidazo[1,2-b]pyridazin-3-yl)-N-(2-(dimethylamino)ethyl)benzamide] | > 100 µM

Continued, values first:

IC50 | SMILES
> 100 µM | O=C(NC[C@@H]1CCCN1)c1ccc(-c2cnc3ccc(NCC4CC4)nn23)cc1 [(S)-4-(6-(cyclopropylmethylamino)imidazo[1,2-b]pyridazin-3-yl)-N-(pyrrolidin-2-ylmethyl)benzamide]
> 100 µM | O=C(NC[C@@H]1CCCN1)c1ccc(-c2cnc3ccc(NCc4cccc(Cl)c4)nn23)cc1 [(S)-4-(6-(3-chlorobenzylamino)imidazo[1,2-b]pyridazin-3-yl)-N-(pyrrolidin-2-ylmethyl)benzamide]
